# Tested on: PKC (mix of isoforms)
# Assay: PKC Assay (counter screen)
# Type: biochemical
# Conditions: myelin basic protein substrate; read-out: Counter screens IC50 (μM) PKC
# Procedure: Each PKC assay consists of the following components:
# Final assay concentrations were as follows: 0.25 mM EGTA, 0.4 mM CaCl, 20 mM Tris pH 7.5, 10 mM MgCl, 1 mM 2-mercaptoethanol, 0.32 mg/ml phosphatidylserine, 0.032 mg/ml diacylglycerol, 10 μM ^33P-ATP, 70 μg/ml MBP, 10 ng/ml PKC, 0.1 mg/ml BSA.
# Assays are performed using 96 deep well assay plates. In each assay well 10 μl of solvent control or appropriate inhibitor dilution with 5 μl ^33P-ATP (components #5 and #3) were premixed. In a separate tube, a mixture containing equal volumes of components #1, #2, #4, and #6 was prepared. The assay reaction was initiated by adding 35 μL of the components #1, #2, #4, and #6 mixture to wells containing ^33P-ATP and inhibitor. The liquid in the assay wells was thoroughly mixed and the assay reactions incubated for 20 minutes at room temperature. The reactions were stopped by adding 100 mM EDTA (50 μl) and 100 mM sodium pyrophosphate (50 μl) and mixing. Phosphorylated MBP was collected on PVDF membranes in 96 well filter plates and quantitated by scintillation counting.
row,SMILES,IC50
1,"CN(C)CC(C)(C)CNc1nn2c(-c3ccccc3)nnc2cc1C1CCC1 [Compound 1, N′-(7-Cyclobutyl-3-phenyl-[1,2,4]triazolo[4,3-b]pyridazin-6-yl)-2,2,N,N-tetramethyl-propane-1,3-diamine]",> 40 µM
2,"CN(C)CC(C)(C)CNc1nn2c(-c3cc(F)cc(F)c3)nnc2cc1C1CCC1 [Compound 2, N′-(7-Cyclobutyl-3-(3,5-difluoro-phenyl)-[1,2,4]triazolo[4,3-b]pyridazin-6-yl)-2,2,N,N-tetramethyl-propane-1,3-diamine]",> 40 µM
3,"CN(C)CC(C)(C)CNc1nn2c(-c3ccc(F)c(F)c3)nnc2cc1C1CCC1 [Compound 3, N′-(7-Cyclobutyl-3-(3,4-difluoro-phenyl)-[1,2,4]triazolo[4,3-b]pyridazin-6-yl)-2,2,N,N-tetramethyl-propane-1,3-diamine]",> 40 µM
4,"CN(C)CC(C)(C)CNc1nn2c(-c3ccc(F)cc3)nnc2cc1C1CCC1 [Compound 4, N′-(7-Cyclobutyl-3-(4-fluoro-phenyl)-[1,2,4]triazolo[4,3-b]pyridazin-6-yl)-2,2,N,N-tetramethyl-propane-1,3-diamine]",> 40 µM
5,"CN(C)CC(C)(C)CNc1nn2c(-c3cccc(F)c3)nnc2cc1C1CCC1 [Compound 5, N′-(7-Cyclobutyl-3-(3-fluoro-phenyl)-[1,2,4]triazolo[4,3-b]pyridazin-6-yl)-2,2,N,N-tetramethyl-propane-1,3-diamine]",> 40 µM

# — US7098208B2, “Inhibitors of Akt activity” (Merck & Co., Inc., priority 2001, dated 2006)
